ChEMBL document CHEMBL1201862, “PubChem BioAssay data set” (2004)
The source made the active and inactive calls.

Key:
[1] = molecular target: T1, High affinity choline transporter 1 (Homo sapiens, UniProt Q9GZV3); assay: human choline transporter blockers, potency – cell-based, 5-point CRC, membrane potential dye, dose response (AID 504840); type: functional
T1 sequence (Q9GZV3 whole entry): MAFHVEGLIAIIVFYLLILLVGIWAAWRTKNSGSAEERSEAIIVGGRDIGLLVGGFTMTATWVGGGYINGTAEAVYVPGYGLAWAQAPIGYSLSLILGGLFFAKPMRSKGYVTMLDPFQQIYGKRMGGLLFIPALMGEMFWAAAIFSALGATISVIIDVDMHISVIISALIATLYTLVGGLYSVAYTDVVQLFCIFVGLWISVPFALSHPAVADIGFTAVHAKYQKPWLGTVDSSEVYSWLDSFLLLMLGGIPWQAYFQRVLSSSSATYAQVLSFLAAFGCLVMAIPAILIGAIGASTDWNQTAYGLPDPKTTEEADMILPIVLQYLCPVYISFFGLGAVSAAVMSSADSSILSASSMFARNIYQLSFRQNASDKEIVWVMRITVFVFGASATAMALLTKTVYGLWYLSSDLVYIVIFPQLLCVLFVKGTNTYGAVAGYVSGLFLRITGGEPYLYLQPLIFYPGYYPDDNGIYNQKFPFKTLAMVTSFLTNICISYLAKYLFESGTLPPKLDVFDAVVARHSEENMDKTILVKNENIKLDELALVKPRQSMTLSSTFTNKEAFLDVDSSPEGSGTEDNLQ

BJ [2] = assay: BJ-TERT fibroblast viability loss – cell-based, RAS-independent, luminescence, dose response (AID 1933); type: functional; details: Homo sapiens
[3] = viability of HCT116 lacking mutant beta-catenin – cell-based, human colon tumor, dose response (AID 1045); type: functional;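 also: HCT116 colon tumor cells with beta catenin knocked out; cells exposed to compound for 60 hours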
BJ [4] = assay: cells; type: functional, cell-based; details: Homo sapiens
Protein RecA = molecular target: T2, Protein RecA (Mycobacterium tuberculosis, UniProt P9WHJ3); assay: Fluorescence Cell-Free Homogeneous Dose Retest to Identify Inhibitors of RecA-Intein Splicing Activity. [Related pubchem assays (depositor defined):AID2097, AID2223, AID489010, AID492950]; type: functional
T2 sequence (P9WHJ3 whole entry): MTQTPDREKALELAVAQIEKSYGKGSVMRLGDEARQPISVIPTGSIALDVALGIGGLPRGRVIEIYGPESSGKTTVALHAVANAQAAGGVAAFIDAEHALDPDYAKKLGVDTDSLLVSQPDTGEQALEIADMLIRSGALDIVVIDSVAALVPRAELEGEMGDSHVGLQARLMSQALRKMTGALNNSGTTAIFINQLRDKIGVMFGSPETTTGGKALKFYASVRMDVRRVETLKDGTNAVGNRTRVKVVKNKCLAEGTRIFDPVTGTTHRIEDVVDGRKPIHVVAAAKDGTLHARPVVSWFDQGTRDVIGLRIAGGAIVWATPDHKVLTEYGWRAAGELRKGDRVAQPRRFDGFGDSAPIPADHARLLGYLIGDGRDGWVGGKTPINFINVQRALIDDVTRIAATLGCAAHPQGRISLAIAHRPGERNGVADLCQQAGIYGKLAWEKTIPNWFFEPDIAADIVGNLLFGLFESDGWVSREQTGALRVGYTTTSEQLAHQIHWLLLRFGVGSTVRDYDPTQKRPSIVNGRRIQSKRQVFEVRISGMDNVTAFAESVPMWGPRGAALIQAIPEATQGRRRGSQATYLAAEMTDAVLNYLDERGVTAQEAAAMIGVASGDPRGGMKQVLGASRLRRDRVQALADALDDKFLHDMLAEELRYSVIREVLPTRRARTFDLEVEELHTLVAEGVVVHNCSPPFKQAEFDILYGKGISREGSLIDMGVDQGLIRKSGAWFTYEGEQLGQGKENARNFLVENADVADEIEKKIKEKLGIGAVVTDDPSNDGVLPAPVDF

INS1 = assay: INS-1E survival protection against cytokine death – cell-based, luminescence, retest, dose response (AID 449756); type: functional; details: Rattus norvegicus;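 also: cell death triggered by IL-1 beta plus TNF-alpha plus IFN-gamma mixture; protective hits raise ATP signal compared with cytokine alone wells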
[5] = viability of PTEN-deleted HCT116 cells – cell-based, HCT116 PTEN knockout, dose response (AID 1047); type: functional;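 also: HCT116 colon tumor cells with PTEN knocked out; cells exposed to compound for 60 hours before readout; potency for loss of cell viability measured by luminescence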
BJ [6] = assay: BJ-TERT-LT-ST fibroblast viability loss – cell-based, RAS-independent, luminescence, dose response (AID 1935); type: functional; details: Homo sapiens;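 also: BJ fibroblasts immortalized with TERT plus LT and ST oncogenes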
[7] = molecular target: T3, Replicative DNA helicase DnaB (Mycobacterium tuberculosis, UniProt P9WMR3); assay: DnaB intein splicing inhibitors, dose response, biochemical, cell-free fluorescence (AID 449749); type: functional
T3 sequence (P9WMR3 whole entry): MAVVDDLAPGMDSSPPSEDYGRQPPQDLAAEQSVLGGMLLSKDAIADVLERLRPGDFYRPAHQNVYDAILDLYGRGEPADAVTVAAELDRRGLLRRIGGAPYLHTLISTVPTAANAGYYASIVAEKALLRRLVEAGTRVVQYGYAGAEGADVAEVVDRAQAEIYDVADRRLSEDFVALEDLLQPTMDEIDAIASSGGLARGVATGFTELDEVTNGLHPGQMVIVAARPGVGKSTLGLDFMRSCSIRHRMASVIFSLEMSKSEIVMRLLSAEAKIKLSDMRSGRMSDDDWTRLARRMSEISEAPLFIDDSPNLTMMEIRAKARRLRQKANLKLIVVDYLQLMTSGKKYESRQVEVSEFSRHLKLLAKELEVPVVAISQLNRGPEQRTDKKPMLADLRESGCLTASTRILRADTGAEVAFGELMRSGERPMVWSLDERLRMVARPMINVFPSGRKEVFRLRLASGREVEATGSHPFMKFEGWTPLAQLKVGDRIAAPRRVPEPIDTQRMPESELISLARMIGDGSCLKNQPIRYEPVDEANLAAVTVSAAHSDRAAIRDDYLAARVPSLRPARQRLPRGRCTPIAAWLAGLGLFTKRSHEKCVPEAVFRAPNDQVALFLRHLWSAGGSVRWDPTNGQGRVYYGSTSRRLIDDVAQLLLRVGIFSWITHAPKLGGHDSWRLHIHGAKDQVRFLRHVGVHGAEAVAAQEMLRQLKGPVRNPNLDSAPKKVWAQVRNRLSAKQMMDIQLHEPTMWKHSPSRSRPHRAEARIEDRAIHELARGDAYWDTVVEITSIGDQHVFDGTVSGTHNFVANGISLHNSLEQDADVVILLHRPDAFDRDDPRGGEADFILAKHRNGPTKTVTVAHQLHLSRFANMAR

With `O=[N+]([O-])c1ccc(O)c(C2=NNC(c3ccccc3F)C2)c1` (centres undefined) the IC50 [1] was 15.1 µM (active).
In the case of `Cc1oc2c(c1C(=O)N1CCC(C)CC1)C(=O)c1ccccc1C2=O`, the EC50 (BJ [2]) is reported as 17.6 µM (active), the EC50 [3] is reported as 1.86 µM (active) and the EC50 (BJ [4]) is reported as 13.3 µM (active). The EC50 (Protein RecA) was 1.09 µM (active), the AC50 (INS1) was 2.01 µM (active) and the EC50 [5] was 1.92 µM (active). The EC50 (BJ [6]) was > 75 µM (not active) and the AC50 [7] was 73.9 µM (active).
